The values below come from patent US12077503B2, “Substituted cyclic amides and their use as herbicides” (FMC CORPORATION, priority 2015, dated 2024).

Common to all, as to format: in vivo
Experiment [1] concerns Kochia (Kochia scoparia). The experiment in a line: Test A preemergence. To be noted: Bassia scoparia, pre-emergence, 240 h; for pest or weed control at 125 g/ha: 125 g ai/ha. Summed up: (§1)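 Each rating is a visual injury score from 0 to 100 given about 10 d after treatment, judged against untreated controls kept alongside in the greenhouse. In loam soil–sand blend, seeds got a preemergence directed soil spray, while postemergence plants were 2 to 10 cm tall at spraying.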

In experiment [2] the test system is barnyardgrass (Echinochloa crus-galli). Kind of experiment: Test A preemergence. Particulars: Echinochloa crus-galli, pre-emergence, 240 h; for pest or weed control at 125 g/ha: 125 g ai/ha; for pest or weed control at 500 g/ha: 500 g ai/ha, visual injury rating about 10 d after treatment, 0 to 100 scale (0 no effect, 100 complete control). Summed up:
as §1

Experiment [3] has as its system giant foxtail (Setaria faberii). The experiment in a line: Test A preemergence. Particulars: Setaria faberi, pre-emergence, 240 h; for pest or weed control at 125 g/ha: 125 g ai/ha; for pest or weed control at 500 g/ha: 500 g ai/ha, visual injury rating about 10 d after treatment, 0 to 100 scale (0 no effect, 100 complete control). Summed up:
as §1

In experiment [4] the test system is pigweed (Amaranthus retroflexus). Kind of experiment: Test A preemergence. To be noted: Amaranthus retroflexus, pre-emergence, 240 h; for pest or weed control at 125 g/ha: 125 g ai/ha; for pest or weed control at 500 g/ha: 500 g ai/ha, visual injury rating about 10 d after treatment, 0 to 100 scale (0 no effect, 100 complete control).
The subject of experiment [5] is ragweed (common ragweed, Ambrosia elatior). The experiment in a line: Test A preemergence. To be noted: Ambrosia artemisiifolia, pre-emergence, 240 h. Summed up:
as §1

The subject of experiment [6] is ryegrass, Italian (Italian ryegrass, Lolium multiflorum). The experiment in a line: Test A preemergence. To be noted: Lolium multiflorum, pre-emergence, 240 h; for pest or weed control at 500 g/ha: 500 g ai/ha, preemergence, visual injury rating about 10 d after treatment, 0 to 100 scale (0 no effect, 100 complete control), read-out: Ryegrass, Italian plant response rating. Summed up:
as §1

Experiment [7] has as its system Galium (catchweed bedstraw, Galium aparine). Kind of experiment: Test A postemergence. Particulars: Galium, post-emergence, 240 h; for pest or weed control at 125 g/ha: 125 g ai/ha. Summed up: as §1
The subject of experiment [8] is barnyardgrass (Echinochloa crus-galli). The experiment in a line: Test A postemergence. Particulars: Echinochloa crus-galli, post-emergence, 240 h; for pest or weed control at 125 g/ha: 125 g ai/ha. Summed up:
as §1

Experiment [9] concerns blackgrass (Alopecurus myosuroides). Kind of experiment: Test A postemergence. To be noted: Alopecurus myosuroides, post-emergence, 240 h; for pest or weed control at 125 g/ha: 125 g ai/ha. Summed up:
as §1

Experiment [10] relates to corn (Zea mays). Kind of experiment: Test A postemergence. To be noted: Zea mays, post-emergence, 240 h. The essentials:
as §1

The subject of experiment [11] is giant foxtail (Setaria faberii). The experiment in a line: Test A postemergence. To be noted: Setaria faberi, post-emergence, 240 h; for pest or weed control at 125 g/ha: 125 g ai/ha. Summed up:
as §1

In experiment [12] the test system is pigweed (Amaranthus retroflexus). The experiment in a line: Test A postemergence. Particulars: Amaranthus retroflexus, post-emergence, 240 h, 125 g ai/ha. The essentials: as §1
Experiment [13] has as its system ragweed (common ragweed, Ambrosia elatior). Kind of experiment: Test A postemergence. To be noted: Ambrosia artemisiifolia, post-emergence, 240 h, 125 g ai/ha. The essentials: as §1
Experiment [14] relates to ryegrass, Italian (Italian ryegrass, Lolium multiflorum). Kind of experiment: Test A postemergence. Particulars: Lolium multiflorum, post-emergence, 240 h, 125 g ai/ha. Summed up: as §1
In experiment [15] the test system is wheat (Triticum aestivum). The experiment in a line: Test A postemergence. To be noted: Triticum aestivum, post-emergence, 240 h, 125 g ai/ha. The essentials:
as §1

[16] abbreviates: preemergence, read-out: Barnyardgrass plant response rating.
The mark [17] stands for this setting: preemergence, read-out: Foxtail, Giant plant response rating.
[18] abbreviates: preemergence, read-out: Pigweed plant response rating.

Each structure is given as a SMILES string. Like-named read-outs stand apart in the source and are kept apart here.

Regarding `Cc1cc(F)ccc1NC(=O)[C@H]1C(=O)N(C)C[C@@H]1c1ccc(C(F)(F)F)cc1` [Compound 936], the pest or weed control at 125 g/ha in experiment [1] (preemergence, 0 to 100 scale where 0 is no effect and 100 is complete control, read-out: Kochia plant response rating) was 60%; in experiment [2] (preemergence, 0 to 100 scale where 0 is no effect and 100 is complete control, read-out: Barnyardgrass plant response rating), 70%; in [3] (preemergence, 0 to 100 scale where 0 is no effect and 100 is complete control, read-out: Foxtail, Giant plant response rating), 90%; in experiment [4] (preemergence, 0 to 100 scale where 0 is no effect and 100 is complete control, read-out: Pigweed plant response rating), 20%; in [7] (Postemergence, visual injury after approximately 10 d, 0 to 100 scale where 0 is no effect and 100 is complete control, read-out: Plant response rating, Galium) it was 40%; in experiment [8] (Postemergence, visual injury after approximately 10 d, 0 to 100 scale where 0 is no effect and 100 is complete control, read-out: Plant response rating, Barnyardgrass) it was 60%. Besides, the pest or weed control at 125 g/ha came out at 30% in experiment [9] (Postemergence, visual injury after approximately 10 d, 0 to 100 scale where 0 is no effect and 100 is complete control, read-out: Plant response rating, Blackgrass); 90% in experiment [11] (Postemergence, visual injury after approximately 10 d, 0 to 100 scale where 0 is no effect and 100 is complete control, read-out: Plant response rating, Foxtail, Giant); 20% in experiment [12] (Postemergence, visual injury after approximately 10 d, 0 to 100 scale where 0 is no effect and 100 is complete control, read-out: Plant response rating, Pigweed); 0% in [13] (Postemergence, visual injury after approximately 10 d, 0 to 100 scale where 0 is no effect and 100 is complete control, read-out: Plant response rating, Ragweed); 0% in [14] (Postemergence, visual injury after approximately 10 d, 0 to 100 scale where 0 is no effect and 100 is complete control, read-out: Plant response rating, Ryegrass, Italian). Further, the pest or weed control at 500 g/ha in experiment [1] (500 g ai/ha, preemergence, visual injury rating about 10 d after treatment, 0 to 100 scale (0 no effect, 100 complete control), read-out: Kochia plant response rating) came to 90%; in experiment [2] (setting [16]) it was 90%; in experiment [3] (setting [17]) it was 90%; in experiment [4] (setting [18]) it was 80%; in [5] (500 g ai/ha, preemergence, visual injury rating about 10 d after treatment, 0 to 100 scale (0 no effect, 100 complete control), read-out: Ragweed plant response rating), 50%; in [6], 70%. The Corn plant response rating (crop injury, 0 = no effect, 100 = complete kill) at 125 g/ha in experiment [10] (125 g ai/ha, Postemergence, visual injury after approximately 10 d, 0 to 100 scale where 0 is no effect and 100 is complete control) was determined as 30%. Also, the plant injury at 125 g/ha in [15] (Postemergence, visual injury after approximately 10 d, 0 to 100 scale where 0 is no effect and 100 is complete control, read-out: Plant response rating, Wheat) is 30%.

For the molecule `Cc1cc([C@H]2CNC(=O)[C@@H]2C(=O)Nc2ccccc2S(C)(=O)=O)ccc1C(F)(F)F` [Compound 1041], the pest or weed control at 125 g/ha was found to be 30% in [1] (Preemergence, visual injury rating after approximately 10 d, read-out: Kochia plant response rating (0 to 100 scale, 0 is no effect, 100 is complete control)); 30% in [2] (Preemergence, visual injury rating after approximately 10 d, read-out: Barnyardgrass plant response rating (0 to 100 scale, 0 is no effect, 100 is complete control)); 80% in experiment [3] (Preemergence, visual injury rating after approximately 10 d, read-out: Foxtail, Giant plant response rating (0 to 100 scale, 0 is no effect, 100 is complete control)); 0% in experiment [4] (Preemergence, visual injury rating after approximately 10 d, read-out: Pigweed plant response rating (0 to 100 scale, 0 is no effect, 100 is complete control)); 20% in [5] (125 g ai/ha, Preemergence, visual injury rating after approximately 10 d, read-out: Ragweed plant response rating (0 to 100 scale, 0 is no effect, 100 is complete control)); 0% in experiment [6] (125 g ai/ha, Preemergence, visual injury rating after approximately 10 d, read-out: Ryegrass, Italian plant response rating (0 to 100 scale, 0 is no effect, 100 is complete control)). Also, the pest or weed control at 125 g/ha in experiment [7] (postemergence, visual injury on 0 to 100 scale (0 no effect, 100 complete control), approx. 10 d, read-out: Galium plant response rating) was 40%; in experiment [8] (postemergence, visual injury on 0 to 100 scale (0 no effect, 100 complete control), approx. 10 d, read-out: Barnyardgrass plant response rating) it was 0%; in experiment [9] (postemergence, visual injury on 0 to 100 scale (0 no effect, 100 complete control), approx. 10 d, read-out: Blackgrass plant response rating) it was 0%; in experiment [11] (postemergence, visual injury on 0 to 100 scale (0 no effect, 100 complete control), approx. 10 d, read-out: Foxtail, Giant plant response rating), 0%; in [12] (postemergence, visual injury on 0 to 100 scale (0 no effect, 100 complete control), approx. 10 d, read-out: Pigweed plant response rating), 0%; in experiment [13] (postemergence, visual injury on 0 to 100 scale (0 no effect, 100 complete control), approx. 10 d, read-out: Ragweed plant response rating) it was 0%. Besides, in experiment [14] (postemergence, visual injury on 0 to 100 scale (0 no effect, 100 complete control), approx. 10 d, read-out: Ryegrass, Italian plant response rating), the pest or weed control at 125 g/ha came to 0%. Further, the pest or weed control at 500 g/ha in experiment [2] (setting [16]) was 60%; in [3] (setting [17]), 90%; in experiment [4] (setting [18]), 20%; in experiment [6], 0%; in experiment [7] (500 g ai/ha, postemergence, visual injury, 0 to 100 scale (0 no effect, 100 complete control), approx. 10 d, read-out: Plant response rating, Galium) it was 60%; in experiment [8] (500 g ai/ha, postemergence, visual injury, 0 to 100 scale (0 no effect, 100 complete control), approx. 10 d, read-out: Plant response rating, Barnyardgrass), 50%. In addition, the pest or weed control at 500 g/ha came to 40% in experiment [9] (500 g ai/ha, postemergence, visual injury, 0 to 100 scale (0 no effect, 100 complete control), approx. 10 d, read-out: Plant response rating, Blackgrass) and 50% in experiment [11] (500 g ai/ha, postemergence, visual injury, 0 to 100 scale (0 no effect, 100 complete control), approx. 10 d, read-out: Plant response rating, Foxtail, Giant). In addition, the plant injury at 125 g/ha came to 0% in experiment [10] (125 g ai/ha, postemergence, visual injury on 0 to 100 scale (0 no effect, 100 complete control), approx. 10 d, read-out: Corn plant response rating) and 0% in experiment [15] (postemergence, visual injury on 0 to 100 scale (0 no effect, 100 complete control), approx. 10 d, read-out: Wheat plant response rating). The same molecule returned a Corn plant response rating (crop injury, 0 = no effect, 100 = complete kill) at 500 g/ha in experiment [10] (500 g ai/ha, postemergence, visual injury, 0 to 100 scale (0 no effect, 100 complete control), approx. 10 d) of 30%.
